Values belong to the compound of their own block, whether it stands above or below them.
Key:
[1] = Inhibition of bovine brain tubulin polymerization preincubated for 15 mins followed by GTP addition; parameters: species or system Bos taurus
KB = assay: Antiproliferative activity against human KB cells incubated for 36 hrs; type: functional, cell-based
P388 = assay: Antiproliferative activity against mouse P388 cells incubated for 36 hrs; type: functional, cell-based; details: P388, 36 h
A549 [2] = assay: Antiproliferative activity against human A549 cells incubated for 36 hrs; type: functional, cell-based; details: A549, 36 h
RPMI-7951 = assay: Antiproliferative activity against human RPMI-7951 cells incubated for 36 hrs; type: functional, cell-based; details: RPMI-7951, 36 h
HCT-8 = assay: Antiproliferative activity against human HCT-8 cells incubated for 36 hrs; type: functional, cell-based; details: HCT-8, 36 h
TE-671 = assay: Antiproliferative activity against human TE-671 cells incubated for 36 hrs; type: functional, cell-based; details: TE-671, 36 h
Tubulin = assay: Inhibition of tubulin polymerization (unknown origin); type: protein-complex assay, Homo sapiens
[3] = Inhibition of calf brain tubulin by turbidimetry; parameters: species or system Bos taurus
KB 3-1 = assay: Antiproliferative activity against human KB-31 cells incubated for 96 hrs by spectrophotometric method; type: functional, cell-based; details: KB 3-1, 96 h
[4] = Antiproliferative activity against human KB-8511 cells incubated for 96 hrs by spectrophotometric method; type: functional, cell-based; details: KB-ChR-8-5-11, 96 h
Bos taurus = organism: Bos taurus; assay: Inhibition of bovine brain tubulin polymerization preincubated for 15 mins followed by GTP addition and measured for 30 mins by spectrophotometric method
DU-145 = assay: Antiproliferative activity against human DU145 cells incubated for 72 hrs by WST assay; type: functional, cell-based; details: DU-145, 72 h
PANC-1 [5] = assay: Antiproliferative activity against human PANC1 cells incubated for 72 hrs by WST assay; type: functional, cell-based; details: PANC-1, 72 h
HaCaT = assay: Cytotoxicity against human HaCaT cells incubated for 72 hrs by MTT assay; type: functional, cell-based
PANC-1 [6] = assay: Cytotoxicity against human PANC1 cells incubated for 72 hrs by MTT assay; type: functional, cell-based; details: PANC-1, 72 h
SF-268 [7] = assay: Cytotoxicity against human SF-268 cells by calcein AM reagent based fluorescence method; type: functional, cell-based
SF-268 [8] = assay: Cytotoxicity against human SF-268 cells by cell titer-glow assay; type: functional, cell-based
HCT-116 [9] = assay: Cytotoxicity against human HCT-116 cells by calcein AM reagent based fluorescence method; type: functional, cell-based
HCT-116 [10] = assay: Cytotoxicity against human HCT-116 cells by cell titer-glow assay; type: functional, cell-based
HeLa = assay: Cytotoxicity against human HeLa cells after 24 to 72 hrs by Cell Titer Blue assay; type: cell-based
[11] = target: T1, carboxylesterase 1 (CES1) (Homo sapiens, UniProt P23141); assay: Substrate activity at human carboxylesterase 1 expressed in baculovirus infected Sf9 insect cells assessed as enzyme-catalysed compound cleavage incubated for 2 hrs by HPLC analysis; type: ADME; details: read-out: Activity
T1 sequence (P23141 whole entry): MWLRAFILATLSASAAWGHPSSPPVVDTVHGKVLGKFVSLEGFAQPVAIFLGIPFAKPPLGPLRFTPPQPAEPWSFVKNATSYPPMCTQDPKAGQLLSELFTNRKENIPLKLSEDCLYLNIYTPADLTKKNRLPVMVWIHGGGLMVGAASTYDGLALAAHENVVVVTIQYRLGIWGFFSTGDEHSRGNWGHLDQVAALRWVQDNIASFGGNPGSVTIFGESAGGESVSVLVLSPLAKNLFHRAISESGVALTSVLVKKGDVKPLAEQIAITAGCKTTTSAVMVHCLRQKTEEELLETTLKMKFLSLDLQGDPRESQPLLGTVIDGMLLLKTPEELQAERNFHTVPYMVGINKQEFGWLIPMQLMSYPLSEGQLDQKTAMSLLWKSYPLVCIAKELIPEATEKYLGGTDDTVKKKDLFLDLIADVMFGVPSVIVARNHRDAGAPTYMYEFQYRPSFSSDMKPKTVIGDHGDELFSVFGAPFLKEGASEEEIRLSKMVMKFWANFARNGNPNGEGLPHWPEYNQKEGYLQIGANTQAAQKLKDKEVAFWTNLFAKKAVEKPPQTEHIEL

MIA PaCa-2 = assay: Cytotoxicity against human Mia PaCa-2 cells incubated for 48 hrs by MTT assay; type: functional, cell-based; details: MIA PaCa-2, 48 h
BXPC-3 = assay: Cytotoxicity against human BxPC-3 cells incubated for 48 hrs by MTT assay; type: functional, cell-based; details: BXPC-3, 48 h
A549 [12] = assay: Cytotoxicity against human A549 cells incubated for 48 hrs by MTT assay; type: functional, cell-based; details: A549, 48 h
PC-3 = assay: Cytotoxicity against human PC-3 cells incubated for 48 hrs by MTT assay; type: functional, cell-based; details: PC-3, 48 h
HT-29 = assay: Cytotoxicity against human HT-29 cells incubated for 48 hrs by MTT assay; type: functional, cell-based; details: HT-29, 48 h
[13] = Cytotoxicity against human HGF-1 cells incubated for 48 hrs by MTT assay; type: cell-based; details: HGF1, 48 h
HEK293 = assay: Cytotoxicity against HEK293 cells incubated for 48 hrs by MTT assay; type: cell-based; details: Homo sapiens, HEK293, 48 h
[14] = Cytotoxicity against human BHP-1 cells incubated for 48 hrs by MTT assay; type: cell-based; details: BHP1, 48 h

- IC50 (Tubulin): 1600 nM
SMILES: COc1cc2c(c(OC)c1OC)-c1ccc(OC)c(=O)cc1CC=C2

- IC50 [3]: 670 nM
SMILES: COc1ccc2c(c1)-c1nc(N)ncc1Cc1cc(OC)c(OC)c(OC)c1-2

- IC50 [3]: 2300 nM
SMILES: COc1ccc2c(c1)N(C(C)=O)CCCc1cc(OC)c(OC)c(OC)c1-2

- IC50 [3]: 330 nM
SMILES: COc1ccc2c(c1)/C(=N\O)CCc1cc(OC)c(OC)c(OC)c1-2

- IC50 [3]: 21000 nM
SMILES: COc1ccc2c(c1)NC(=O)CCc1cc(OC)c(OC)c(OC)c1-2

- IC50 (DU-145): 760 nM
- IC50 (PANC-1 [5]): 7900 nM
SMILES: COc1cc2c(c(OC)c1OC)-c1ccc(F)cc1C(NC(C)=O)CC2 (configuration not stated)

- IC50 [3]: 470 nM
SMILES: COc1ccc2c(c1)-c1n[nH]cc1Cc1cc(OC)c(OC)c(OC)c1-2

Second part, the compound before the results:

SMILES: COc1cc2c(c(OC)c1OC)-c1ccc(SC)c(=O)cc1[C@@H](CO)C2
- IC50 [1]: 3600 nM
- IC50 (KB): 144 nM
- IC50 (P388): 144 nM
- IC50 (A549 [2]): 240 nM
- IC50 (RPMI-7951): 134 nM
- IC50 (HCT-8): 160 nM
- IC50 (TE-671): 1320 nM

SMILES: COc1c(COC(C)=O)c2c(c(OC)c1OC)-c1ccc(OC)c(=O)cc1[C@@H](NC(C)=O)CC2
- IC50 (KB 3-1): > 1000 nM
- IC50 [4]: > 1000 nM
- inhibition (Bos taurus): 100%

SMILES: COc1c(CN(C)C(C)=O)c2c(c(OC)c1OC)-c1ccc(OC)c(=O)cc1[C@@H](NC(C)=O)CC2
- IC50 (KB 3-1): > 1000 nM
- IC50 [4]: > 1000 nM
- inhibition (Bos taurus): 0%

SMILES: CCCCCCCCCCCCCCCC(=O)OCC(COP(=O)([O-])OCC[N+](C)(C)C)OC(=O)CCCCCCCCCc1n[nH]c(CC(=O)OCC(=O)N[C@H]2CCc3cc(OC)c(OC)c(OC)c3-c3ccc(C(=O)OC)cc32)n1 (some centres not stated)
- IC50 (HaCaT): 400 nM
- IC50 (PANC-1 [6]): 400 nM

SMILES: CCOC(=O)NCc1c2c(c(OC)c(OC)c1OC)-c1ccc(OC)c(=O)cc1[C@@H](NC(C)=O)CC2
- IC50 (KB 3-1): > 1000 nM
- IC50 [4]: > 1000 nM
- inhibition (Bos taurus): 0%

SMILES: COc1cc2c(c(OC)c1OC)-c1ccc(OC)c(=O)cc1[C@@H](NC(=O)CN(OC)C1O[C@H](C(C)=O)[C@H](O)[C@H](O)[C@H]1O)CC2 (some centres not stated)
- IC50 (SF-268 [7]): 300 nM
- IC50 (SF-268 [8]): 300 nM
- IC50 (HCT-116 [9]): 300 nM
- IC50 (HCT-116 [10]): 300 nM

SMILES: COc1cc2c(c(OC)c1OC)-c1ccc(NCCCC(=O)N[C@H](C(=O)OC3CCCC3)c3ccccc3)c(=O)cc1[C@@H](NC(C)=O)CC2
- IC50 (HeLa): 1240 nM
- metabolised at 2 h [11]: 0%

SMILES: COc1cc2c(c(OC)c1OC)-c1ccc(OC)c(=O)cc1[C@@H](NC(=O)CN(OC)C1C[C@H](O)[C@H](O)[C@@H](C)O1)CC2 (some centres not stated)
- IC50 (SF-268 [7]): 300 nM
- IC50 (SF-268 [8]): 300 nM
- IC50 (HCT-116 [9]): 300 nM
- IC50 (HCT-116 [10]): 300 nM

SMILES: COc1cc2c(c(OC)c1OC)-c1ccc(Nc3ccc(Cl)c(C(F)(F)F)c3)c(=O)cc1[C@@H](NC(C)=O)CC2
- IC50 (MIA PaCa-2): 35 nM
- IC50 (BXPC-3): 35 nM
- IC50 (A549 [12]): 35 nM
- IC50 (PC-3): 35 nM
- IC50 (HT-29): 35 nM
- IC50 [13]: 35 nM
- IC50 (HEK293): 35 nM
- IC50 [14]: 35 nM

SMILES: C=C1COc2cc3c(cc21)-c1c(cc(OC)c(OC)c1OC)CC[C@@H]3NC(=O)CO
- IC50 (HaCaT): 3 nM
- IC50 (PANC-1 [6]): 16 nM

SMILES: COc1cc2c(c(OC)c1OC)-c1ccc(OC)c(=O)cc1[C@@H](NC(=O)CN(OC)C1C[C@@H](O)[C@@H](O)[C@@H](CO)O1)CC2 (some centres not stated)
- IC50 (SF-268 [7]): 300 nM
- IC50 (SF-268 [8]): 300 nM
- IC50 (HCT-116 [9]): 300 nM
- IC50 (HCT-116 [10]): 300 nM

SMILES: COc1c(CNC(=O)c2ccccc2)c2c(c(OC)c1OC)-c1ccc(OC)c(=O)cc1[C@@H](NC(C)=O)CC2
- IC50 (KB 3-1): > 1000 nM
- IC50 [4]: > 1000 nM
- inhibition (Bos taurus): 0%

SMILES: COc1c(CO)c2c(c(OC)c1OC)-c1ccc(OC)c(=O)cc1[C@@H](NC(C)=O)CC2
- IC50 [4]: > 1000 nM
- inhibition (Bos taurus): 100%

SMILES: COc1cc2c(c(OC)c1OC)-c1ccc(NCCC(O)C(=O)N[C@H](C(=O)OC3CCCC3)c3ccccc3)c(=O)cc1[C@@H](NC(C)=O)CC2 (some centres not stated)
- IC50 (HeLa): 220 nM
- metabolised at 2 h [11]: 0%
